Source: US7485641B2, “Substituted 3-amino-pyrrolidino-4-lactams” (Pfizer, Inc., priority 2006, dated 2009)
Where a name gives a salt, the structure may show the parent alone.

Biological target: T1, DPP-IV (Homo sapiens, UniProt P27487)
T1 construct: purchased Enzyme Systems Products SPE-01
Test: In vitro assay for dipeptidyl peptidase inhibition
Format: biochemical
Settings: n-value given in brackets; read-out: DPP-IV IC50

T1 sequence (P27487 whole entry, species assumed): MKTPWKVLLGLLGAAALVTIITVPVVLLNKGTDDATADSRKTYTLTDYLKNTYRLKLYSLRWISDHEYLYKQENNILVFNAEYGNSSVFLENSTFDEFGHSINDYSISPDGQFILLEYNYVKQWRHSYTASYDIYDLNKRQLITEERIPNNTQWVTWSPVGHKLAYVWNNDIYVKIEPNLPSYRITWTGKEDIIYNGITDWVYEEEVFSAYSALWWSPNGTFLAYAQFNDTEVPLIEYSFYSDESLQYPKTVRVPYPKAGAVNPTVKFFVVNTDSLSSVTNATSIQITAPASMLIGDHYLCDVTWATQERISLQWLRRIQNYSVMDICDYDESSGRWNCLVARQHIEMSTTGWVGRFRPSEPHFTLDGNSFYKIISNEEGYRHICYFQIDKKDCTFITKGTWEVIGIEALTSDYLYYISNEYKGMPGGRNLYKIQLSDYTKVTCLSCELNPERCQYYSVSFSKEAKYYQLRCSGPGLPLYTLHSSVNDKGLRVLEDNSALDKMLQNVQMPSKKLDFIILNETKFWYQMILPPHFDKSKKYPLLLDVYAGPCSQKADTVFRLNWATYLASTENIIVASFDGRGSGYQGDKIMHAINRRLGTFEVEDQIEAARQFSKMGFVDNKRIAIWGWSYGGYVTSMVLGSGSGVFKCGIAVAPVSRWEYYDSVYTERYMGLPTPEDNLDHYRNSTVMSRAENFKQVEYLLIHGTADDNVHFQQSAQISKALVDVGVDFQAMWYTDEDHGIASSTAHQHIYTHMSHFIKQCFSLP

Row | IC50 | Compound
1 | 0.0922 µM | 1-((3S,4S)-4-Amino-1-(4-((R)-3-fluoropyrrolidin-1-yl)-1,3,5-triazin-2-yl)pyrrolidin-3-yl)piperidin-2-onetrifluoroacetate [Example 27]
2 | 0.0126 µM | Cc1nc(N2C[C@H](N)[C@@H](N3CC(F)(F)CCC3=O)C2)cc(N2CCC(F)(F)C2)n1 [Example 3, 1-((3S,4S)-4-amino-1-(6-(3,3-difluoropyrrolidin-1-yl)-2-methylpyrimidin-4-yl)pyrrolidin-3-yl)-5,5-difluoropiperidin-2-one]
3 | 0.00608 µM | N[C@H]1CN(c2cc(N3CCc4nocc4C3)ncn2)C[C@@H]1N1CC(F)(F)CCC1=O [Example 4, 1-((3S,4S)-4-amino-1-(6-(6,7-dihydroisoxazolo[4,3-c]pyridin-5(4H)-yl)pyrimidin-4-yl)pyrrolidin-3-yl)-5,5-difluoropiperidin-2-one]
4 | 0.0118 µM | N[C@H]1CN(c2cc(N3CCc4nocc4C3)ncn2)C[C@@H]1N1CCCCC1=O [Example 5, 1-((3S,4S)-4-Amino-1-(6-(6,7-dihydroisoxazolo[4,3-c]pyridin-5(4H)-yl)pyrimidin-4-yl)pyrrolidin-3-yl)piperidin-2-one dihydrochloride]
5 | 0.488 µM | N[C@H]1CN(c2cc(-c3ccccc3)ncn2)C[C@@H]1N1CCCC1=O [Example 6, 1-((3S,4S)-4-Amino-1-(6-phenylpyrimidin-4-yl)pyrrolidin-3-yl)pyrrolidin-2-one dihydrochloride]
6 | 0.0474 µM | N[C@H]1CN(c2cc(-c3ccccc3)ncn2)C[C@@H]1N1CCCCC1=O [Example 7, 1-((3S,4S)-4-Amino-1-(6-phenylpyrimidin-4-yl)pyrrolidin-3-yl)piperidin-2-one hydrochloride]
7 | 0.0271 µM | N[C@H]1CN(c2cc(-c3ccc(O)nc3)ncn2)C[C@@H]1N1CCCCC1=O [Example 8, 1-{(3S,4S)-4-Amino-1-[6-(6-hydroxy-pyridin-3-yl)pyrimidin-4-yl]-pyrrolidin-3-yl}-piperidin-2-one]
8 | 0.0273 µM | COc1ccc(-c2cc(N3C[C@H](N)[C@@H](N4CC(F)(F)CCC4=O)C3)ncn2)cn1 [Example 9, 1-((3S,4S)-4-amino-1-(6-(6-methoxypyridin-3-yl)pyrimidin-4-yl)pyrrolidin-3-yl)-5,5-difluoropiperidin-2-one trifluoroacetate]
9 | 0.0255 µM | N[C@H]1CN(c2cc(N3CCC(F)(F)C3)ncn2)C[C@@H]1N1CCCCC1=O [Example 10, 1-((3S,4S)-4-Amino-1-(6-(3,3-difluoropyrrolidin-1-yl)pyrimidin-4-yl)pyrrolidin-3-yl)piperidin-2-onedihydrochloride]
10 | 0.0374 µM | N[C@H]1CN(c2ncnc(N3CCC(F)(F)C3)n2)C[C@@H]1N1CCCCC1=O [Example 11, 1-{(3S,4S)-4-Amino-1-[4-(3,3-difluoro-pyrrolidin-1-yl)-[1,3,5]triazin-2-yl]-pyrrolidin-3-yl}-piperidin-2-onedihydrochloride]
11 | 0.522 µM | N[C@H]1CN(c2cc(N3CCC(F)(F)C3)ncn2)C[C@@H]1N1CCCC1=O [Example 12, 1-((3S,4S)-4-Amino-1-(6-(3,3-difluoropyrrolidin-1-yl)pyrimidin-4-yl)pyrrolidin-3-yl)pyrrolidin-2-onedihydrochloride]
12 | 0.0567 µM | N[C@H]1CN(c2cc(N3CCC(F)(F)C3)nc(C(F)(F)F)n2)C[C@@H]1N1CC(F)(F)CCC1=O [Example 13, 1-((3S,4S)-4-amino-1-(6-(3,3-difluoropyrrolidin-1-yl)-2-(trifluoromethyl)pyrimidin-4-yl)pyrrolidin-3-yl)-5,5-difluoropiperidin-2-one]
13 | 0.0451 µM | N[C@H]1CN(c2cc(N3CCC(F)(F)C3)nc(C(F)(F)F)n2)C[C@@H]1N1CCCCC1=O [Example 14, 1-((3S,4S)-4-amino-1-(6-(3,3-difluoropyrrolidin-1-yl)-2-(trifluoromethyl)pyrimidin-4-yl)pyrrolidin-3-yl)piperidin-2-one]
14 | 0.0398 µM | CCc1nc(N2C[C@H](N)[C@@H](N3CCCCC3=O)C2)cc(N2CCC(F)(F)C2)n1 [Example 15, 1-((3S,4S)-4-amino-1-(6-(3,3-difluoropyrrolidin-1-yl)-2-ethylpyrimidin-4-yl)pyrrolidin-3-yl)piperidin-2-one]
15 | 0.136 µM | CC(C)c1nc(N2C[C@H](N)[C@@H](N3CCCCC3=O)C2)cc(N2CCC(F)(F)C2)n1 [Example 16, 1-((3S,4S)-4-amino-1-(6-(3,3-difluoropyrrolidin-1-yl)-2-isopropylpyrimidin-4-yl)pyrrolidin-3-yl)piperidin-2-oneformate]
16 | 0.109 µM | N[C@H]1CN(c2cc(N3CCC(F)(F)C3)nc(C3CC3)n2)C[C@@H]1N1CCCCC1=O [Example 17, 1-((3S,4S)-4-amino-1-(2-cyclopropyl-6-(3,3-difluoropyrrolidin-1-yl)pyrimidin-4-yl)pyrrolidin-3-yl)piperidin-2-one]

Row | IC50 | Compound
17 | 0.0433 µM | CCCc1nc(N2C[C@H](N)[C@@H](N3CCCCC3=O)C2)cc(N2CCC(F)(F)C2)n1 [Example 18, 1-((3S,4S)-4-amino-1-(6-(3,3-difluoropyrrolidin-1-yl)-2-propylpyrimidin-4-yl)pyrrolidin-3-yl)piperidin-2-oneformate]
18 | 0.0749 µM | CSc1nc(N2C[C@H](N)[C@@H](N3CCCCC3=O)C2)cc(N2CCC(F)(F)C2)n1 [Example 19, 1-((3S,4S)-4-amino-1-(6-(3,3-difluoropyrrolidin-1-yl)-2-(methylthio)pyrimidin-4-yl)pyrrolidin-3-yl)piperidin-2-one]
19 | 0.0825 µM | CCSc1nc(N2C[C@H](N)[C@@H](N3CCCCC3=O)C2)cc(N2CCC(F)(F)C2)n1 [Example 20, 1-((3S,4S)-4-amino-1-(6-(3,3-difluoropyrrolidin-1-yl)-2-(ethylthio)pyrimidin-4-yl)pyrrolidin-3-yl)piperidin-2-one]
20 | 0.218 µM | N[C@H]1CN(c2ncnc(N3CCC(F)(F)C3)c2F)C[C@@H]1N1CCCCC1=O [Example 21, 1-((3S,4S)-4-amino-1-(6-(3,3-difluoropyrrolidin-1-yl)-5-fluoropyrimidin-4-yl)pyrrolidin-3-yl)piperidin-2-one]
21 | 0.832 µM | CC(C)(C)c1nc(N2C[C@H](N)[C@@H](N3CCCCC3=O)C2)cc(N2CCC(F)(F)C2)n1 [Example 22, 1-((3S,4S)-4-amino-1-(2-tert-butyl-6-(3,3-difluoropyrrolidin-1-yl)pyrimidin-4-yl)pyrrolidin-3-yl)piperidin-2-one]
22 | 0.012 µM | N[C@H]1CN(c2cc(N3CC[C@H](F)C3)ncn2)C[C@@H]1N1CC(F)(F)CCC1=O [Example 23, 1-((3S,4S)-4-amino-1-(6-((S)-3-fluoropyrrolidin-1-yl)pyrimidin-4-yl)pyrrolidin-3-yl)-5,5-difluoropiperidin-2-one]
23 | 0.0478 µM | N[C@H]1CN(c2ncnc(N3CC[C@H](F)C3)n2)C[C@@H]1N1CC(F)(F)CCC1=O [Example 24, 1-((3S,4S)-4-amino-1-(4-((S)-3-fluoropyrrolidin-1-yl)-1,3,5-triazin-2-yl)pyrrolidin-3-yl)-5,5-difluoropiperidin-2-one]
24 | 0.0802 µM | N[C@H]1CN(c2ncnc(N3CC[C@H](F)C3)n2)C[C@@H]1N1CCCCC1=O [Example 25, 1-((3S,4S)-4-Amino-1-(4-((S)-3-fluoropyrrolidin-1-yl)-1,3,5-triazin-2-yl)pyrrolidin-3-yl)piperidin-2-onetrifluoroacetate]
25 | 0.0373 µM | Cc1nc(N2CC[C@H](F)C2)cc(N2C[C@H](N)[C@@H](N3CC(F)(F)CCC3=O)C2)n1 [Example 26, 1-((3S,4S)-4-amino-1-(6-((S)-3-fluoropyrrolidin-1-yl)-2-methylpyrimidin-4-yl)pyrrolidin-3-yl)-5,5-difluoropiperidin-2-one]
26 | 0.0678 µM | N[C@H]1CN(c2ncnc(N3C[C@@H](F)[C@@H](F)C3)n2)C[C@@H]1N1CCCCC1=O [Example 28, 1-((3S,4S)-4-Amino-1-(4-((3R,4S)-3,4-difluoropyrrolidin-1-yl)-1,3,5-triazin-2-yl)pyrrolidin-3-yl)piperidin-2-onetrifluoroacetate]
27 | 0.154 µM | N[C@H]1CN(c2ncnc(N3C[C@@H](F)[C@H](F)C3)n2)C[C@@H]1N1CCCCC1=O [Example 29, 1-((3S,4S)-4-Amino-1-(4-((3R,4R)-3,4-difluoropyrrolidin-1-yl)-1,3,5-triazin-2-yl)pyrrolidin-3-yl)piperidin-2-onetrifluoroacetate]
28 | 0.104 µM | N[C@H]1CN(c2ncnc(N3C[C@H](F)[C@@H](F)C3)n2)C[C@@H]1N1CCCCC1=O [Example 30, 1-((3S,4S)-4-Amino-1-(4-((3S,4S)-3,4-difluoropyrrolidin-1-yl)-1,3,5-triazin-2-yl)pyrrolidin-3-yl)piperidin-2-onetrifluoroacetate]
29 | 0.0977 µM | Cc1nc(N2C[C@H](N)[C@@H](N3CC(F)(F)CCC3=O)C2)cc(N2CCCC(F)(F)C2)n1 [Example 33, 1-((3S,4S)-4-amino-1-(6-(3,3-difluoropiperidin-1-yl)-2-methylpyrimidin-4-yl)pyrrolidin-3-yl)-5,5-difluoropiperidin-2-onetrifluoroacetate]
30 | 0.277 µM | Cc1nc(N2C[C@H](N)[C@@H](N3CCCCC3=O)C2)cc(N2CCCC(F)(F)C2)n1 [Example 34, 1-((3S,4S)-4-amino-1-(6-(3,3-difluoropiperidin-1-yl)-2-methylpyrimidin-4-yl)pyrrolidin-3-yl)piperidin-2-onetrifluoroacetate]
31 | 0.558 µM | CC1(O)CCN(c2ncnc(N3C[C@H](N)[C@@H](N4CCCCC4=O)C3)n2)CC1 [Example 35, 1-{(3S,4S)-4-Amino-1-[4-(4-hydroxy-4-methyl-piperidin-1-yl)-[1,3,5]triazin-2-yl]-pyrrolidin-3-yl}-piperidin-2-onetrifluoroacetate]

Row | Compound | IC50
32 | 1-((3S,4S)-4-Amino-1-(6-(pyrrolidin-1-yl)pyrimidin-4-yl)pyrrolidin-3-yl)pyrrolidin-2-one(dihydrochloride) [Example 31] | 0.483 µM
33 | N[C@H]1CN(c2ncnc(N3CCCC3)n2)C[C@@H]1N1CCCCC1=O [Example 32, 1-((3S,4S)-4-Amino-1-(4-(pyrrolidin-1-yl)-1,3,5-triazin-2-yl)pyrrolidin-3-yl)piperidin-2-onetrifluoroacetate] | 0.0915 µM
